Patent US7384934B2, “Piperazine substituted aryl benzodiazepines” (Eli Lilly and Company, priority 2002, dated 2008)
Structures can show the parent of a compound that is named as a salt.

Key:
Dopamine D2 receptor = target: T1, Dopamine D2 receptor (Homo sapiens, UniProt P14416); assay: Dopamine D2 receptor binding assay ([125I]iodospiperone); settings: relative Ki scale of Table 5; read-out: Relative D2 Receptor Binding Affinity Ki
T1 construct: purchased Receptor Biology (now owned by NEN) RBHD2CM
T1 sequence (P14416 1-414 isoform P14416-2): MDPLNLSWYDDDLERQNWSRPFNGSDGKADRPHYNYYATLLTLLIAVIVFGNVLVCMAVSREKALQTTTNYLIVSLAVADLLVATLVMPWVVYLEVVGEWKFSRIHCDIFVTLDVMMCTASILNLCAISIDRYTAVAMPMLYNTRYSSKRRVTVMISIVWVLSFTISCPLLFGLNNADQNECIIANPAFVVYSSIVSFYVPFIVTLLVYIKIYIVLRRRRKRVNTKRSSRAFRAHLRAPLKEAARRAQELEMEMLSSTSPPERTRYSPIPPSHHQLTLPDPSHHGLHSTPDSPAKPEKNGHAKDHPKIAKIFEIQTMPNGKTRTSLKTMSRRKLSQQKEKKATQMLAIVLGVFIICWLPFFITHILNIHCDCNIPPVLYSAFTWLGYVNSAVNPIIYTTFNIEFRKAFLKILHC
Description: The assay buffers used are 50 mM Tris-HCl pH 7.4, 120 mM NaCl, 5 mM KCl, 5 mM MgCl2, 1 mM EDTA for the Dopamine D2s receptor binding assay. […] The membranes used are from Receptor Biology (now owned by NEN), Cat # RBHD2CM for the D2 receptor.
Compounds are obtained as 10 mM stocks in 100% DMSO. They are diluted to 1 mM in 100% DMSO by adding 180 μL DMSO to 20 μL of stock in 96 well plates using a multidrop. […] This is done using a TECAN robot.
The radioligand is diluted in assay buffer to provide 0.1 nM for the D2 assay. Each vial of membranes is diluted up to 92 mL in assay buffer. The final assay volume is 250 μL consisting of 210 μl of diluted membranes, 20 μL of compound or 10% DMSO for total binding, and 20 μL of diluted radioligand. The compounds are transferred from drug dilution plates into coming 96 well assay plates using a 96 well Multimek pipettor. Radioligand and membranes are added to assay plates using multidrop pipettors. Non-specific binding is determined in wells containing a final concentration of 5 μM haloperidol. The final drug concentration range in half logs is from 10 μM down to 0.1 nM.
After addition of drug, membrane, and ligand, the plates are incubated for 2 hours at room temperature. During this time 96 well Millipore filter plates (MAFBNOB50) are soaked for a least 30 minutes with 200 μL per well of 0.5% polyethyleneimine.
The 0.5% PEI is removed from filterplate wells using a TiterTek MAP aspirator and 200 μL of the incubation mixture is transferred from the incubation plate to the filterplate after mixing. This transfer is done using the 96 tip Mutimek pipettor. After transfer to the filterplate filterplates are extracted and ished twice with 220 μL per well of cold buffer on the MAP aspirator. The peel away bottoms are removed from the filterplates and 60 μL per well of microscint 20 scintillation fluid is added per well using a multidrop. […]

melting point | Ki (Dopamine D2 receptor) | SMILES
190 to 192 °C |  | COCC[C@H]1CN(C2=Nc3ccc(F)cc3Nc3sc(C)cc32)CCN1C (as salt: hydrochloride) [Example 279a, (S)-6-Fluoro 10-[3-(2-methoxy-ethyl)-4-methyl-piperazin-1-yl]-2-methyl-4H-3-thia-4,9-diaza-benzo[f]azulene dihydrochloride]
74 to 88 °C |  | Cc1cc2c(s1)Nc1ccccc1N=C2N1CCN(C)[C@@H](COc2ccccc2)C1 [Example 265, (R)-10-(4-Methyl-3-phenoxymethyl-piperazin-1-yl)-2-methyl-4H-3-thia-4,9-diaza-benzo[f]azulene]
74 to 88 °C |  | Cc1cc2c(s1)Nc1ccccc1N=C2N1CCN(C)C(COc2ccccc2)C1 (stereo in doubt) [Example 271, (R)-10-(4-Methyl-3-phenoxymethyl-piperazin-1-yl)-2-methyl 4H-3-thia-4,9-diaza-benzo[f]azulene]
118 to 124 °C |  | Cc1cc2c(s1)Nc1ccccc1N=C2N1CCN(C)[C@@H](CO)C1 [Example 259, (R)-[1-Methyl-4-(2-methyl-4H-3-thia-4,9-diaza-benzo[f]azulen-10-yl)-piperazin-2-yl]-methanol]
194 °C |  | CSCC[C@H]1CN(C2=Nc3ccc(F)cc3Nc3sc(C)cc32)CCN1C.Cl.Cl
48 to 56 °C |  | COCC[C@H]1CN(C2=Nc3ccccc3Nc3ccc(C(F)(F)F)cc32)CCN1C [Example 221, (S)-2-Trifluoromethyl-11-[3-(2-methoxy-ethyl)-4-methyl-piperazin-1-yl]-5H-dibenzo[b,e][1,4]diazepine]
64 to 81 °C |  | Cc1cc2c(s1)Nc1ccccc1N=C2N1CCN[C@@H](COc2ccccc2)C1 [Example 244, (R)-10-(3-Phenoxymethyl-piperazin-1-yl)-2-methyl-4H-3-thia-4,9-diaza-benzo[f]azulene]
198 to 202 °C (dec.) |  | COCC[C@H]1CN(C2=Nc3cc(F)c(F)cc3Nc3sc(C)cc32)CCN1 [Example 254, (S)-6,7-Difluoro-10-[3-(2-methoxy-ethyl)-piperazin-1-yl]-2-methyl-4H-3-thia-4,9-diaza-benzo[f]azulene]
230 °C |  | Cc1cc2c(s1)Nc1cc(F)ccc1N=C2N1CCN(C)[C@@H](CCO)C1.Cl.Cl
76 to 80 °C |  | COC[C@H]1CN(C2=Nc3ccccc3Nc3sc(C)cc32)CCN1C [Example 260, (R)-10-(3-Methoxymethyl-4-methyl-piperazin-1-yl)-2-methyl-4H-3-thia-4,9-diaza-benzo[f]azulene]
 | 10 to 100 nM | COC(C)C[C@H]1CN(C2=Nc3ccccc3Nc3sc(C)cc32)CCN1 (mixture of isomers) [Example 359, 10-[3(S)-(2(S)-Methoxypropyl)-piperazin-1-yl]-2-methyl-4H-3-thia-4,9-diazabenzo[f]azulene and 10-[3(S)-(2(R)-Methoxypropyl)-piperazin-1-yl]-2-methyl-4H-3-thia-4,9-diazabenzo[f]azulene]
 | < 10 nM | COCC[C@H]1CN(C2=Nc3ccccc3Nc3sc(C(F)(F)F)nc32)CCN1 [Example 314, (S)-10-[3-(2-Methoxy-ethyl)-piperazin-1-yl]-2-trifluoromethyl-4H-3-thia-1,4,9-triaza-benzo[f]azulene]
 | < 10 nM | CC(C)c1nc2c(s1)Nc1ccccc1N=C2N1CCN(C)[C@@H](CCO)C1 [Example 326, (S)-2-[4-(2-Isopropyl-4H-3-thia-1,49-triazabenzo[f]azulene-10-yl)-1-methylpiperazin-2-yl]ethanol]
 | 10 to 100 nM | CCCN1CCN(C2=Nc3ccccc3Nc3sc(C(C)C)nc32)C[C@@H]1CCOC [Example 341, (S)-10-[3-(2-Methoxyethyl)-4-propylpiperazin-1-yl]-2-isopropyl-4H-3-thia-1,4,9-triazabenzo[f]azulene dihydrochloride]
 | 10 to 100 nM | CCOCC[C@H]1CN(C2=Nc3ccccc3Nc3sc(C(C)C)nc32)CCN1C [Example 328, (S)-10-[3-(2-Ethoxyethyl)-4-methylpiperazin-1-yl]-2-isopropyl-4H-3-thia-1,4,9-triazabenzo[f]azulene dihydrochloride]
 | 10 to 100 nM | COCC[C@H]1CN(C2=Nc3ccccc3Nc3sc(C)nc32)CCN1C [Example 320, (S)-10-[3-(2-Methoxyethyl)-4-methylpiperazin-1-yl]-2-methyl-4H-3-thia-1,4,9-triazabenzo[f]azulene dihydrochloride]

melting point | Ki (Dopamine D2 receptor) | SMILES
 | 10 to 100 nM | COCC[C@H]1CN(C2=Nc3ccccc3Nc3sc(C)cc32)CCN1C [Example 267, (s)-10-[3-(2-Methoxyethyl)-4-methylpiperazin-1-yl]-2-methyl-4H-3-thia-4,9-diazabenzo[f]azulene dihydrochloride]
 | 10 to 100 nM | Cc1cc2c(s1)Nc1ccccc1N=C2N1CCN(C)[C@@H](CCOc2ccccc2)C1 [Example 269, (S)-10-[4-Methyl-3-(2-phenoxyethyl)piperazin-1-yl]-2-methyl-4H-3-thia-4,9-diazabenzo[f]azulene dihydrochloride]
 | 100 to 1000 nM | Cc1cc2c(s1)Nc1ccccc1N=C2N1CCN[C@@H](CC(C)(C)O)C1 [Example 369, (S)-2-Methyl-1-[4-(2-methyl-4H-3-thia-4,9-diaza-benzo[f]azulen-10-yl)piperazin-2-yl]-propan-2-ol]
 | 100 to 1000 nM | COCC[C@H]1CN(C2=Nc3ccccc3Nc3sc(CO)nc32)CCN1 [Example 312, (S)-10-[3-(2-Methoxy-ethyl)-piperazin-1-yl]-4H-3-thia-1,4,9-triaza-benzo[f]azulene-2-yl-methanol]
 | 100 to 1000 nM | COCC[C@H]1CN(C2=Nc3ccccc3Nc3sc(C(C)C)nc32)CCN1CCOC [Example 343, (S)-10-[3,4-Bis(2-methoxyethyl)piperazin-11-yl]-2-isopropyl-4H-3-thia-1,4,9-triazabenzo[f]azulene dihydrochloride]
 | < 10 nM | COCC[C@H]1CN(C2=Nc3ccccc3Nc3sc(CCC(F)(F)F)nc32)CCN1 [Example 318, (S)-10-[3-(2-Methoxy-ethyl)-piperazin-1-yl]-2-(3,3,3-trifluoro-propyl)-4H-3-thia-1,4,9-triaza-benzo[f]azulene dihydrochloride]
 | < 10 nM | CC(C)c1nc2c(s1)Nc1ccccc1N=C2N1CCN[C@@H](CC(C)(C)O)C1 [Example 367, (S)-1-[4-(2-Isopropyl-4H-3-thia-1,4,9-triazabenzo[f]azulene-10-yl)-piperazin-2-yl]-2-methylpropan-2-ol dihydrochloride]
 | 10 to 100 nM | COCC[C@H]1CN(C2=Nc3ccccc3Nc3sc(C(F)(F)F)nc32)CCN1CCCF [Example 351, (S)-10-[4-(3-Fluoro-propyl)-3-(2-methoxy-ethyl)-piperazin-1-yl]-2-trifluoromethyl-4H-3-thia-1,4,9-triaza-benzo[f]azulene]
 | < 10 nM | COCC[C@H]1CN(C2=Nc3ccccc3Nc3sc(C(F)F)nc32)CCN1 [Example 316, (S)-10-[3-(2-Methoxy-ethyl)-piperazin-1-yl]-2-difluoromethyl-4H-3-thia-1,49-triaza-benzo[f]azulene]
 | < 10 nM | COCC[C@H]1CN(C2=Nc3ccccc3Nc3sc(C(F)(F)F)nc32)CCN1C [Example 334, (S)-10-[3-(2-Methoxy-ethyl)-4-methyl-piperazin-1-yl]-2-trifluoromethyl-4H-3-thia-1,4,9-triaza-benzo[f]azulene]
 | 10 to 100 nM | COCC[C@H]1CN(C2=Nc3ccccc3Nc3sc(C(F)(F)F)nc32)CCN1CCO [Example 353]
 | > 1000 nM | COCC[C@H]1CN(C2=Nc3ccccc3Nc3cc(C)ccc32)CCN1 [Example 198, (S)-3-Methyl-11-[3-(2-methoxy-ethyl)-piperazin-1-yl]-5H-dibenzo[b,e][1,4]diazepine]
 | 10 to 100 nM | COCC[C@H]1CN(C2=Nc3ccccc3Nc3sc(C(F)(F)F)nc32)CCN1CCCO [Example 355, (S)-3-[2-(2-Methoxy-ethyl)-4-(2-trifluoromethyl-4H-3-thia-1,4,9-triaza-benzo[f]azulene-10-yl)-piperazin-1-yl]-propan-1-ol]
 | 100 to 1000 nM | CCOC(=O)c1nc2c(s1)Nc1ccccc1N=C2N1CCN[C@@H](CCOC)C1 [Example 313, (S)-10-[3-(2-Methoxy-ethyl)-piperazin-1-yl]-4H-3-thia-1,4,9-triaza-benzo[f]azulene-2-carboxylic acid ethyl ester]
 | 10 to 100 nM | Cc1nc2c(s1)Nc1ccccc1N=C2N1CCN(C)[C@@H](CCO)C1 [Example 319, (S)-2-[1-Methyl-4-(2-methyl-4H-3-thia-1,4,9-triazabenzo[f]azulene-10-yl)piperazin-2-yl]ethanol dihydrochloride]
 | < 10 nM | CCCN1CCN(C2=Nc3ccccc3Nc3sc(C(F)(F)F)nc32)C[C@@H]1CCOC [Example 346, (S)-10-[3-(2-Methoxy-ethyl)-4-propyl-piperazin-1-yl]-2-trifluoromethyl-4H-3-thia-1,4,9-triaza-benzo[f]azulene]
